In patent publication US12172993B2 (priority 2018, dated 2024):

Columns and labels:
in vivo = details: male, CD1, mouse
PDGFR-beta = PDGFR-beta (Homo sapiens (Human), UniProt P09619); experiment: biochemical; details: read-out: Residual activity (%) at 1 μM
hERG potassium channel = hERG potassium channel (Homo sapiens (Human), UniProt Q12809); details: 3 uM; from NDA 21-986 review; cited from earlier work
WEE1 = WEE1 (Homo sapiens (Human), UniProt P30291); experiment: biochemical; details: read-out: Residual activity (%) at 1 μM
MST4 = MST4 (Homo sapiens (Human), UniProt Q9P289); experiment: biochemical; details: read-out: Residual activity (%) at 1 μM
BMPR1A = BMPR1A (Homo sapiens (Human), UniProt P36894); experiment: biochemical; details: read-out: Residual activity (%) at 1 μM
in vitro = details: dog, MDCK
MDR1 = experiment: in vitro; details: dog, MDCK-MDR1
RET [1] = target: T1, RET (Homo sapiens (Human), UniProt P07949)
RET [2] = target: T1, RET; experiment: biochemical; details: read-out: Residual activity (%) at 1 μM, RET
human plasma-proteins = details: human plasma-protein binding
[3] = human, microsomes, 40 min
MC38 cells [4] = system: MC38 cells
[5] = system: cell-panel representing haematological cancers; experiment: haematological cancer cell-panel growth inhibition (Oncolead); type: cell-based
RAF1 = RAF1 (Homo sapiens (Human), UniProt P04049, Y340D/Y341D); type: biochemical; details: read-out: Residual activity (%) at 1 μM
[6] = maximal tolerable dose (MTD) study in female C57Bl/6 mice
PANC-1 cells = experiment: real-time live cell microscopy of TNF-induced cell death (YOYO-1); type: cell-based; details: real-time live cell assay
murine plasma-proteins = details: murine plasma protein binding
NFKB activity = details: PANC-1 reporter cells; in words
MC38 cells [7] = experiment: cells; details: Mus musculus, MC-38, 72 h, read-out: MC38 IC50 (nM at 100 ng/mL TNF)
[8] = system: immune cells present in the tumour microenvironment
[9] = twice daily treatment, intra-tumoural

T1 sequence (P07949 29-1114 limits assumed): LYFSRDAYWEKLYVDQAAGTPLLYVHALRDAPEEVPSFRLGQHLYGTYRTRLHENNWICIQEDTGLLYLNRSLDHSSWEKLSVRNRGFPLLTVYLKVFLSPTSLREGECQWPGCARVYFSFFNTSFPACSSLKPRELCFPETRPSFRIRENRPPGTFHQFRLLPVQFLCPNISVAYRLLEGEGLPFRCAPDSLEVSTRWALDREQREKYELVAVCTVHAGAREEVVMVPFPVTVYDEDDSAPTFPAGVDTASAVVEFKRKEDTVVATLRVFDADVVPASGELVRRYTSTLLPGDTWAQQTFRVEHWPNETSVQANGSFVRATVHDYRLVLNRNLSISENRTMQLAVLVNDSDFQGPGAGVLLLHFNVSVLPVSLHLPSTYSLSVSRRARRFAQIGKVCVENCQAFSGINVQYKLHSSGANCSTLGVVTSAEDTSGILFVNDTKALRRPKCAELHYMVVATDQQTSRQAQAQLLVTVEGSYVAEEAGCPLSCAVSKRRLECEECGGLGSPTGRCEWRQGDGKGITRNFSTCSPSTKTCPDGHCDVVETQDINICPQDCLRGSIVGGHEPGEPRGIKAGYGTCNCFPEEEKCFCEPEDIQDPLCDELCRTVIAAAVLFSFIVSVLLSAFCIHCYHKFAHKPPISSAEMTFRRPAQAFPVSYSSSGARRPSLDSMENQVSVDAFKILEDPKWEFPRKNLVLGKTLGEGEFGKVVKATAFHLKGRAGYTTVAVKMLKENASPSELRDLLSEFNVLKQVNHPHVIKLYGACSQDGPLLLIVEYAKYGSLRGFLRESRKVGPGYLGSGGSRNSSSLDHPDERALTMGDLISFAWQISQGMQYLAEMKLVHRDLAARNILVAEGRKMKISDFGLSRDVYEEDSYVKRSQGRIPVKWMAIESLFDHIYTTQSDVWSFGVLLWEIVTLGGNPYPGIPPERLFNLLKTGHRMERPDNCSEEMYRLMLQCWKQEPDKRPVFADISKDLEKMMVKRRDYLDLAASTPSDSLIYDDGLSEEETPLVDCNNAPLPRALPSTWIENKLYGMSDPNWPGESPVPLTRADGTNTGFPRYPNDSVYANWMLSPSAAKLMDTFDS
Sequence of BMPR1A (P36894 24-532 limits assumed): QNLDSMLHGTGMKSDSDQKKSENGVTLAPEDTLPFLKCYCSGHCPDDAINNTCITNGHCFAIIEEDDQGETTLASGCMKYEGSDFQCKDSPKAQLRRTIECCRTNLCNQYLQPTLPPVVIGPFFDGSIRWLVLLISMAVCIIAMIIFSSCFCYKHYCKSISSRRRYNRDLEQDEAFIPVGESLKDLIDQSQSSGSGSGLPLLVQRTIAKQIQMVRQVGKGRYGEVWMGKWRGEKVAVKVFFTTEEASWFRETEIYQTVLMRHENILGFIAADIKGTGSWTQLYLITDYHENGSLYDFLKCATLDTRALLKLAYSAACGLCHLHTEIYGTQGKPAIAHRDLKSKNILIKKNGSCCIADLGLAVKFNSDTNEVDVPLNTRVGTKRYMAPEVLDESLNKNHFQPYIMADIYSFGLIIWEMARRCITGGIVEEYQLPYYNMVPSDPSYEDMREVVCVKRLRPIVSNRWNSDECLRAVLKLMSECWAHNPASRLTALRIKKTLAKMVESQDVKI
Sequence of RAF1 (P04049 307-648 Y340D/Y341D limits assumed): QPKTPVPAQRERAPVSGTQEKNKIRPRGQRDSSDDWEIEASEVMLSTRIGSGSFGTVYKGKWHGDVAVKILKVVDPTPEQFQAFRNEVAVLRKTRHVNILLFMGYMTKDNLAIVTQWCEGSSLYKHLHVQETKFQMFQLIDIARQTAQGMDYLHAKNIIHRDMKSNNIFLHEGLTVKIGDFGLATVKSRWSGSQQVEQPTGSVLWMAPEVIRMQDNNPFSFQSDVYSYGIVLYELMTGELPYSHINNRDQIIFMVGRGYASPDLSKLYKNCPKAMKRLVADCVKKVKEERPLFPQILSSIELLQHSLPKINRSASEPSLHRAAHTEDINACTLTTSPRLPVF
Sequence of PDGFR-beta (P09619 33-1106 limits assumed): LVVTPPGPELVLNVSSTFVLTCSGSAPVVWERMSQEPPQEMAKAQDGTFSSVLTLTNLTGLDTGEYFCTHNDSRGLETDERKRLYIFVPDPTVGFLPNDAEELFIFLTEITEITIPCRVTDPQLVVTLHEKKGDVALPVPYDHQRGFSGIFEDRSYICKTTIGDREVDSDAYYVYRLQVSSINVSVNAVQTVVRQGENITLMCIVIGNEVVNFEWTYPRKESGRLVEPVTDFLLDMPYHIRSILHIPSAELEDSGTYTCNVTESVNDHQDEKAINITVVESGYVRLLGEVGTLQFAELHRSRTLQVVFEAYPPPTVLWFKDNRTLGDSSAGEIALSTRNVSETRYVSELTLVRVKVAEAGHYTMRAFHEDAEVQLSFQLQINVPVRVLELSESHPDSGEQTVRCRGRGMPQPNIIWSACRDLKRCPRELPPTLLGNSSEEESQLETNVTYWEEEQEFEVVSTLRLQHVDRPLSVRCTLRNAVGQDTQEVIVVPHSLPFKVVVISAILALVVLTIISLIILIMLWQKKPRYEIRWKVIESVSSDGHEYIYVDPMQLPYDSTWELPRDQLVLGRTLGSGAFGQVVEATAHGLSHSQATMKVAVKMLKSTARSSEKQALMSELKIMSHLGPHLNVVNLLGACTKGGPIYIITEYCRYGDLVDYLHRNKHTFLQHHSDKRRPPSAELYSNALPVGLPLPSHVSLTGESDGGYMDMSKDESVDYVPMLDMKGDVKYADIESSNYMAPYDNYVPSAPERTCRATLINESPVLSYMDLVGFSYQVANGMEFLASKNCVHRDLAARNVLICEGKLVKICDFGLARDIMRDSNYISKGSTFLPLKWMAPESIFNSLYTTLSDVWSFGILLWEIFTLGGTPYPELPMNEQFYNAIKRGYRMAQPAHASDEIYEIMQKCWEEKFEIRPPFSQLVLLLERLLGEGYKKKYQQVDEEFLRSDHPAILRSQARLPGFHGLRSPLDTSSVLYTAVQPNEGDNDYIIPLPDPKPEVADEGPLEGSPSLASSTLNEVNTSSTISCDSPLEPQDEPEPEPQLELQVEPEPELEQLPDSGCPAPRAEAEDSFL

## Cc1nc(Nc2ncc(C(=O)Nc3c(C)cccc3Cl)s2)cc(N2CCN(CCO)CC2)n1 [Compound A8, N-(2-chloro-6-methylphenyl)-2-((6-(4-(2-hydroxyethyl)piperazin-1-yl)-2-methylpyrimidin-4-yl)amino)thiazole-5-carboxamide, reference compound]
In vivo; plasma, iv, 1 mg/kg
  Cmax: 1280 nM
  MRT inf: 1.6 h
  MRT last: 1.3 h
  Tmax: 0.08 h
  Vd: 3.1 L/kg
  clearance: 32 mL/min/kg
In vivo; plasma, po, 30 mg/kg
  Cmax: 1130 nM
  Tmax: 2 h
  bioavailability: 21%
PDGFR-beta
  remaining activity at 1 µM: 2%
hERG potassium channel
  inhibition of hERG currents: about 6%
WEE1
  remaining activity at 1 µM: 61%
MST4
  remaining activity at 1 µM: 79%
BMPR1A
  remaining activity at 1 µM: 42%
In vitro
  Papp: 49 ×10⁻⁶ cm/s
MDR1
  Papp: 105 ×10⁻⁶ cm/s
RET [1]
  Residual activity (%) at 1 μM: 39%
RET [2]
  remaining activity at 1 µM: < 40%

## Cc1nc(Nc2ncc(C(=O)Nc3c(C)csc3Cl)s2)cc(N2CCN(CCO)CC2)n1 [Compound C7, N-(2-chloro-4-methylthiophen-3-yl)-2-((6-(4-(2-hydroxyethyl)piperazin-1-yl)-2-methylpyrimidin-4-yl)amino)thiazole-5-carboxamide]
Human plasma-proteins
  Percentage unbound (%): <1%
In vivo; in vivo, iv, 1 mg/kg
  MRT inf: 1 h
  MRT last: 0.7 h
[3]
  % Remaining at 40 min (%): 1%
MC38 cells [4]
  sensitisation to the cytotoxic effect of TNF: sensitised to the cytotoxic effect of TNF
[5]; on about 5 cell lines of the panel
  GI50 activity: sub-nanomolar
[5]; read-out: GI50 activity
  GI50: < 10 nM
RAF1
  remaining activity at 1 µM: 4 to 5%
HDAC4 phosphorylation
  phosphorylation of HDAC4: inhibit the phosphorylation of HDAC4
[6]; 33 and 100 mg/kg QD or BID, 7 consecutive days
  signs of intolerance: did not show any signs of intolerance
[6]; all dosing groups vs non-treated control animals
  body weight: minor reduction in body weight
[6]; gavage, female C57BL/6 animals, seven days
  tolerable dose: up to 100 mg/kg BID
PANC-1 cells
  sensitisation to the effect of rHuTNF: sensitise PANC-1 cells to the effect of rHuTNF
Murine plasma-proteins
  Percentage unbound (%): 5%
NFKB activity
  TNF-induced activity of NFkB: inhibit TNF-induced activity of NFkB in a dose-dependent manner
MC38 cells [7]
  IC50: < 100 nM
[8]; mouse, in vivo
  immunosuppressive M2 macrophages (CD206+MHC-II+): significantly reduced
[8]; [9]
  activation of cytotoxic T lymphocytes, CD25+CD69+: increased activation
  activation of cytotoxic T lymphocytes, granzyme B expression: increased activation
